≈ marks a conversion by molar mass, not a printed value.
Legend:
Assay in all cases: In vitro MIC, broth dilution
Type in all cases: cell-based
E. coli GC 4559 = settings: Escherichia coli, GC4559; E. coli GC 4559; read-out: MIC
E. coli GC 4560 = settings: Escherichia coli, GC4560; E. coli GC 4560; read-out: MIC
E. coli GC 3226 = settings: Escherichia coli, GC3226; E. coli GC 3226; read-out: MIC
S. marcescens GC 4077 = settings: Serratia marcescens, GC4077; S. marcescens GC 4077; read-out: MIC
C. albicans GC 3066 = settings: Candida albicans, GC3066; C. albicans GC 3066; read-out: MIC
M. morganii GC 4531 = settings: Morganella morganii, GC4531; M. morganii GC 4531; read-out: MIC
K. pneumoniae GC 4534 = settings: Klebsiella pneumoniae, GC4534; K. pneumoniae GC 4534; read-out: MIC
E. cloacae GC 3783 = settings: Enterobacter cloacae, GC3783; E. cloacae GC 3783; read-out: MIC
P. aeruginosa GC 4532 = settings: Pseudomonas aeruginosa, GC4532; P. aeruginosa GC 4532; read-out: MIC
CNS GC 4537 = settings: CNS GC 4537; read-out: MIC
Procedure, shortened: (§1)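 MIC = lowest antibiotic concentration preventing visible growth after 18 h at 35 °C, ambient air. Inoculum 5×10^5 CFU/ml; drug tested 64-0.06 μg/ml in Mueller-Hinton II broth following NCCLS guidance.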

CNS GC 4538 = settings: CNS GC 4538; read-out: MIC
Procedure, shortened: as §1

CNS GC 4547 = settings: CNS GC 4547; read-out: MIC
Procedure, shortened: as §1

E. faecalis GC 2242 = settings: Enterococcus faecalis, GC2242; E. faecalis GC 2242; read-out: MIC
Procedure, shortened: as §1

E. faecalis GC 4555 = settings: Enterococcus faecalis, GC4555; E. faecalis GC 4555; read-out: MIC
Procedure, shortened: as §1

E. faecalis GC 842 = settings: Enterococcus faecalis, GC842; E. faecalis GC 842; read-out: MIC
Procedure, shortened: as §1

S. aureus GC 1131 = settings: Staphylococcus aureus, GC1131; S. aureus GC 1131; read-out: MIC
Procedure, shortened: as §1

S. aureus GC 2216 = settings: Staphylococcus aureus, GC2216; S. aureus GC 2216; read-out: MIC
Procedure, shortened: as §1

S. aureus GC 4536 = settings: Staphylococcus aureus, GC4536; S. aureus GC 4536; read-out: MIC
Procedure, shortened: as §1

E. coli GC 2203 = settings: Escherichia coli, GC2203; E. coli GC 2203; read-out: MIC
P. aeruginosa GC 2214 = settings: Pseudomonas aeruginosa, GC2214; P. aeruginosa GC 2214; read-out: MIC

| SMILES | MIC (E. coli GC 4559) [µg/mL] | MIC (E. coli GC 4560) [µg/mL] | MIC (E. coli GC 3226) [µg/mL] | MIC (S. marcescens GC 4077) [µg/mL] | MIC (C. albicans GC 3066) [µg/mL] | MIC (M. morganii GC 4531) [µg/mL] | MIC (K. pneumoniae GC 4534) [µg/mL] | MIC (E. cloacae GC 3783) [µg/mL] | MIC (P. aeruginosa GC 4532) [µg/mL] | MIC (CNS GC 4537) [µg/mL] | MIC (CNS GC 4538) [µg/mL] | MIC (CNS GC 4547) [µg/mL] | MIC (E. faecalis GC 2242) [µg/mL] | MIC (E. faecalis GC 4555) [µg/mL] | MIC (E. faecalis GC 842) [µg/mL] | MIC (S. aureus GC 1131) [µg/mL] | MIC (S. aureus GC 2216) [µg/mL] | MIC (S. aureus GC 4536) [µg/mL] | MIC (E. coli GC 2203) [µg/mL] | MIC (P. aeruginosa GC 2214) [µg/mL] |
| --- | --- | --- | --- | --- | --- | --- | --- | --- | --- | --- | --- | --- | --- | --- | --- | --- | --- | --- | --- | --- |
| COc1ccc(Cn2c(=O)ccn([C@@H]3OC([C@H](O)[C@H](NCCCNC(=O)[C@@H](CC(C)C)NC(=O)OCc4ccccc4)C(=O)OC(C)(C)C)[C@@H](O[Si](C)(C)C(C)(C)C)[C@H]3O[Si](C)(C)C(C)(C)C)c2=O)cc1 (stereo partly drawn) [Example 56, tert-Butyl (5R,12S)-12-[(R)-[(3R,4R,5R)-3,4-bis{[tert-butyl(dimethyl)silyl]oxy}-5-(3-(4-methoxybenzyl)-2,4-dioxo-3,4-dihydro-1(2H)-pyrimidinyl)tetrahydro-2-furanyl](hydroxy)methyl]-5-isobutyl-3,6-dioxo-1-phenyl-2-oxa-4,7,11-triazatridecan-13-oate] | > 128 | > 128 | > 128 | > 128 | > 128 | 128 (≈ 125 µM) | > 128 | > 128 | 128 (≈ 125 µM) | > 128 | > 128 | > 128 | 128 (≈ 125 µM) | > 128 | > 128 | > 128 | > 128 | > 128 | > 128 | 128 (≈ 125 µM) |
| COc1ccc(Cn2c(=O)ccn([C@@H]3OC([C@H](O)[C@H](NCCCNC(=O)[C@H](N)CC(C)C)C(=O)OC(C)(C)C)[C@@H](O[Si](C)(C)C(C)(C)C)[C@H]3O[Si](C)(C)C(C)(C)C)c2=O)cc1 (stereo partly shown) [Example 57] | > 128 | 128 (≈ 143 µM) | > 128 | 128 (≈ 143 µM) | 128 (≈ 143 µM) | 128 (≈ 143 µM) | > 128 | 128 (≈ 143 µM) | 128 (≈ 143 µM) | 4 (≈ 4.48 µM) | 4 (≈ 4.48 µM) | 64 (≈ 71.7 µM) | 4 (≈ 4.48 µM) | 4 (≈ 4.48 µM) | 8 (≈ 8.97 µM) | 64 (≈ 71.7 µM) | 32 (≈ 35.9 µM) | 8 (≈ 8.97 µM) | > 128 | 128 (≈ 143 µM) |

— patent publication US6858591B2, “Antibiotic AA 896 analogs” (Wyeth Holdings Corporation, priority 2001, dated 2005)
